Patent US10023570B2 (Array BioPharma, Inc., priority 2015, dated 2018)

target: human KDR protein in HEK-293 cells (Homo sapiens (Human), UniProt P35968); assay: KDR Cell Assay (phospho-KDR in HEK-293 cells expressing inducible KDR); type: cell-based; details: pKDR Cell HEK 10% FBS IC50, HEK-293 cells expressing inducible KDR, VEGF stimulated
Summary of the method: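 HEK-293 cells with inducible human KDR were treated with compound for 1 h in DMEM (0.25% DMSO final), then lysed. Phospho-KDR was quantified by Meso Scale immunoassay, expressed as percent of control, and IC50 taken where a 4-parameter logistic fit crossed 50 POC.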

Sequence of human KDR protein in HEK-293 cells (P35968 20-1356): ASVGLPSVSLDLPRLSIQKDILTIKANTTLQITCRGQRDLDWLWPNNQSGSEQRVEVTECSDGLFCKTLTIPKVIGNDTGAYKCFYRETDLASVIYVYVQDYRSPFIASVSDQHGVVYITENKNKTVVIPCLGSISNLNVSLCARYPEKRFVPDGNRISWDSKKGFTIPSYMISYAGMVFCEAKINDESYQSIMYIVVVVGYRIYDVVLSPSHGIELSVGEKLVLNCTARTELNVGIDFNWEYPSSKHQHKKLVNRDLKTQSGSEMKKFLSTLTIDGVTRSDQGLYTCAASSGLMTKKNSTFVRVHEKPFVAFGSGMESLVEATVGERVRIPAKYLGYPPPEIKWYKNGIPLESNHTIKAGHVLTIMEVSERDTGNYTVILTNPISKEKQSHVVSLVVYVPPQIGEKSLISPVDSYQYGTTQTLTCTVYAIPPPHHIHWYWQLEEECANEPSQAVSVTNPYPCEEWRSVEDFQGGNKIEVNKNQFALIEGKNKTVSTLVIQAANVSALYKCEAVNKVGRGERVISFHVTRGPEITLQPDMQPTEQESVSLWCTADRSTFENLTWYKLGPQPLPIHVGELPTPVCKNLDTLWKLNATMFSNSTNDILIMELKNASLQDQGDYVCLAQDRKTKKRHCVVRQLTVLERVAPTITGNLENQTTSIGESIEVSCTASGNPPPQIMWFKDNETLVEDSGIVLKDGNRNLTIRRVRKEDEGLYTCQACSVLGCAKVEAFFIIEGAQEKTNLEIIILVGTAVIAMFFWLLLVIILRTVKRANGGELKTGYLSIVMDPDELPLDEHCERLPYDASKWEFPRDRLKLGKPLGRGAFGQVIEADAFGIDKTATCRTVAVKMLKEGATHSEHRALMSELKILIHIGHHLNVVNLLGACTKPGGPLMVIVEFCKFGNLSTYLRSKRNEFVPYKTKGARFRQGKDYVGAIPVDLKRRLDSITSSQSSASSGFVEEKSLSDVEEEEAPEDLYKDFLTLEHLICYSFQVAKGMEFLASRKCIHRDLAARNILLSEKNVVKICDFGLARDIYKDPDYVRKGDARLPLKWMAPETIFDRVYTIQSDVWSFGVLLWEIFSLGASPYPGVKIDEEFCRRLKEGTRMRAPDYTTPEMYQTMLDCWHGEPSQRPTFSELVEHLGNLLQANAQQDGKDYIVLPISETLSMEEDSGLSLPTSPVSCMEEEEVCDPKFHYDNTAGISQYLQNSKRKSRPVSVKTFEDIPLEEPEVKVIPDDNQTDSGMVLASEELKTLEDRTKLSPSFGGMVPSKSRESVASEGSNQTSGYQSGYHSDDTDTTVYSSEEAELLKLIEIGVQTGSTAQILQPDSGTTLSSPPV

Row | Compound | IC50
1 | Cn1cc(-c2cc(-c3ccc(N4CCN(CC(F)F)CC4)nc3)c3c(C#N)cnn3c2)cn1 [Example 418, 4-(6-(4-(2,2-difluoroethyl)piperazin-1-yl)pyridin-3-yl)-6-(1-methyl-1H-pyrazol-4-yl)pyrazolo[1,5-a]pyridine-3-carbonitrile] | 1510 nM
2 | COc1ccc(CN2CCN(c3ccc(-c4cc(-c5cnn(C)c5)cn5ncc(C#N)c45)cn3)CC2)cc1 [Example 432, 4-(6-(4-(4-methoxybenzyl)piperazin-1-yl)pyridin-3-yl)-6-(1-methyl-1H-pyrazol-4-yl)pyrazolo[1,5-a]pyridine-3-carbonitrile] | 263 nM
3 | Cc1cc(CN2CCN(c3ccc(-c4cc(-c5cnn(C)c5)cn5ncc(C#N)c45)cn3)CC2)no1 [Example 436, 6-(1-methyl-1H-pyrazol-4-yl)-4-(6-(4-((5-methylisoxazol-3-yl)methyl)piperazin-1-yl)pyridin-3-yl)pyrazolo[1,5-a]pyridine-3-carbonitrile] | 536 nM
4 | Cn1cc(-c2cc(-c3ccc(N4CCN(Cc5nccn5C)CC4)nc3)c3c(C#N)cnn3c2)cn1 [Example 437, 4-(6-(4-((1-methyl-1H-imidazol-2-yl)methyl)piperazin-1-yl)pyridin-3-yl)-6-(1-methyl-1H-pyrazol-4-yl)pyrazolo[1,5-a]pyridine-3-carbonitrile] | 1970 nM
5 | Cn1cc(-c2cc(-c3cnc(N4CCN(Cc5ccccc5)CC4)nc3)c3c(C#N)cnn3c2)cn1 [Example 639, 4-(2-(4-benzylpiperazin-1-yl)pyrimidin-5-yl)-6-(1-methyl-1H-pyrazol-4-yl)pyrazolo[1,5-a]pyridine-3-carbonitrile] | 4680 nM
6 | Cn1cc(-c2cc(-c3ccc(N4CCC5(CC4)CN(C(=O)N4CCCC4)C5)nc3)c3c(C#N)cnn3c2)cn1 [Example 500, 6-(1-methyl-1H-pyrazol-4-yl)-4-(6-(2-(pyrrolidine-1-carbonyl)-2,7-diazaspiro[3.5]nonan-7-yl)pyridin-3-yl)pyrazolo[1,5-a]pyridine-3-carbonitrile] | 458 nM

same assay, conditions: pKDR Cell HEK 10% FBS IC50, HEK-293 cells expressing inducible KDR, VEGF stimulated, 10% FBS

Row | Compound | IC50
7 | Cc1cnc(C(=O)N2CCN(c3ccc(-c4cc(-c5cnn(C)c5)cn5ncc(C#N)c45)cn3)CC2)cn1 [Example 49, 6-(1-methyl-1H-pyrazol-4-yl)-4-(6-(4-(5-methylpyrazine-2-carbonyl)piperazin-1-yl)pyridin-3-yl)pyrazolo[1,5-a]pyridine-3-carbonitrile bis(2,2,2-trifluoroacetate)] | 237 nM
8 | Cn1cc(-c2cc(-c3ccc(N4CCN(C(=O)CCc5cccnc5)CC4)nc3)c3c(C#N)cnn3c2)cn1 [Example 43, 6-(1-methyl-1H-pyrazol-4-yl)-4-(6-(4-(3-(pyridin-3-yl)propanoyl)piperazin-1-yl)pyridin-3-yl)pyrazolo[1,5-a]pyridine-3-carbonitrile bis(2,2,2-trifluoroacetate)] | 653 nM
9 | Cn1cc(-c2cc(-c3ccc(N4CCN(C(=O)C[C@H](O)c5ccccc5)CC4)nc3)c3c(C#N)cnn3c2)cn1 [Example 8, (S)-4-(6-(4-(3-hydroxy-3-phenylpropanoyl)piperazin-1-yl)pyridin-3-yl)-6-(1-methyl-1H-pyrazol-4-yl)pyrazolo[1,5-a]pyridine-3-carbonitrile] | 98.9 nM
10 | Cn1cc(-c2cc(-c3ccc(N4CCN(C(=O)C5(C(F)(F)F)CC5)CC4)nc3)c3c(C#N)cnn3c2)cn1 [Example 346, 6-(1-methyl-1H-pyrazol-4-yl)-4-(6-(4-(1-(trifluoromethyl)cyclopropanecarbonyl)piperazin-1-yl)pyridin-3-yl)pyrazolo[1,5-a]pyridine-3-carbonitrile] | 1770 nM
11 | CC(=O)N1CCN(c2ccc(-c3cc(-c4cnn(C)c4)cn4ncc(C#N)c34)cc2)CC1 [Example 295, 4-(4-(4-acetylpiperazin-1-yl)phenyl)-6-(1-methyl-1H-pyrazol-4-yl)pyrazolo[1,5-a]pyridine-3-carbonitrile] | 720 nM
12 | CO[C@H]1CCN(C(=O)N2CCN(c3ncc(-c4cc(-c5cnn(C)c5)cn5ncc(C#N)c45)cn3)CC2)C1 [Example 286, (S)-4-(2-(4-(3-methoxypyrrolidine-1-carbonyl)piperazin-1-yl)pyrimidin-5-yl)-6-(1-methyl-1H-pyrazol-4-yl)pyrazolo[1,5-a]pyridine-3-carbonitrile] | 4830 nM
13 | Cn1cc(-c2cc(-c3ccc(N4CCN(C(=O)C5(c6cccnc6)CC5)CC4)nc3)c3c(C#N)cnn3c2)cn1 [Example 369, 6-(1-methyl-1H-pyrazol-4-yl)-4-(6-(4-(1-(pyridine-3-yl)cyclopropane-1-carbonyl)piperazin-1-yl)pyridin-3-yl)pyrazolo[1,5-a]pyridine-3-carbonitrile bis(2,2,2-trifluoroacetate)] | 1270 nM
14 | Cn1cc(-c2cc(-c3ccc(N4CCN(C(=O)Cc5cccnc5)CC4)nc3)c3c(C#N)cnn3c2)cn1 [Example 71, 6-(1-methyl-1H-pyrazol-4-yl)-4-(6-(4-(2-(pyridin-3-yl)acetyl)piperazin-1-yl)pyridin-3-yl)pyrazolo[1,5-a]pyridine-3-carbonitrile] | 503 nM
15 | CC(C)CS(=O)(=O)N1CCN(c2ccc(-c3cc(-c4cnn(C)c4)cn4ncc(C#N)c34)cn2)CC1 [Example 90, 4-(6-(4-(isobutylsulfonyl)piperazin-1-yl)pyridin-3-yl)-6-(1-methyl-1H-pyrazol-4-yl)pyrazolo[1,5-a]pyridine-3-carbonitrile] | 24.1 nM
16 | CO[C@@H](C(=O)N1CCN(c2ccc(-c3cc(-c4cnn(C)c4)cn4ncc(C#N)c34)cn2)CC1)C(C)C [Example 86, (R)-4-(6-(4-(2-methoxy-3-methylbutanoyl)piperazin-1-yl)pyridin-3-yl)-6-(1-methyl-1H-pyrazol-4-yl)pyrazolo[1,5-a]pyridine-3-carbonitrile] | 428 nM
17 | Cn1cc(-c2cc(-c3ccc(N4CCN(CC(C)(C)O)CC4)nc3)c3c(C#N)cnn3c2)cn1 [Example 156, 4-(6-(4-(2-hydroxy-2-methylpropyl)piperazin-1-yl)pyridin-3-yl)-6-(1-methyl-1H-pyrazol-4-yl)pyrazolo[1,5-a]pyridine-3-carbonitrile] | 1760 nM
18 | CN(C)CC(=O)N1CCN(c2ccc(-c3cc(-c4cnn(C)c4)cn4ncc(C#N)c34)cc2)CC1 [Example 296, 4-(4-(4-(2-(dimethylamino)acetyl)piperazin-1-yl)phenyl)-6-(1-methyl-1H-pyrazol-4-yl)pyrazolo[1,5-a]pyridine-3-carbonitrile] | 2350 nM
19 | Cc1cc(-c2cc(-c3cnn(C)c3)cn3ncc(C#N)c23)cnc1N1CCN(C(=O)[C@H](O)c2ccccc2)CC1 [Example 278, (R)-4-(6-(4-(2-hydroxy-2-phenylacetyl)piperazin-1-yl)-5-methylpyridin-3-yl)-6-(1-methyl-1H-pyrazol-4-yl)pyrazolo[1,5-a]pyridine-3-carbonitrile] | 138 nM
20 | C[C@@H](CO)Cn1cc(-c2cc(-c3ccc(N4CCN(C(=O)CC(C)(C)C)CC4)cc3)c3c(C#N)cnn3c2)cn1 [Example 306, (R)-4-(4-(4-(3,3-dimethylbutanoyl)piperazin-1-yl)phenyl)-6-(1-(3-hydroxy-2-methylpropyl)-1H-pyrazol-4-yl)pyrazolo[1,5-a]pyridine-3-carbonitrile] | 880 nM
21 | CNS(=O)(=O)N1CCN(c2ccc(-c3cc(-c4cnn(C)c4)cn4ncc(C#N)c34)cc2)CC1 [Example 299, 4-(4-(3-cyano-6-(1-methyl-1H-pyrazol-4-yl)pyrazolo[1,5-a]pyridin-4-yl)phenyl)-N-methylpiperazine-1-sulfonamide] | 151 nM
